SMILES strings stand for the structures.

We go through 70 molecules from patent US9451775B2, “Heterocyclic compounds as pesticides” (Bayer Intellectual Property GmbH, priority 2008, dated 2016).

One data set in a line: logP determination by HPLC (formic acid method). In kind it is physicochemical. To be noted: pH 3.4; values given in the preparation examples; formic acid method; read-out: logP (HCOOH). The method, then: 1) Description of the method for determining the logP values (formic acid method)
The logP values given in the table were determined in accordance with EEC Directive 79/831 Annex V.A8 by HPLC (High Performance Liquid Chromatography) on a reversed-phase column (C18). Temperature: 55° C.
Mobile phases for the determination in the acidic range (pH 3.4):
Mobile phase A: Acetonitrile+1 ml of formic acid/litre. Mobile phase B: water+0.9 ml of formic acid/litre.
Gradient: from 10% mobile phase A/90% mobile phase B to 95% mobile phase A/5% mobile phase B in 4.25 min.
Calibration was carried out using unbranched alkan-2-ones (having 3 to 16 carbon atoms) with known logP values (determination of the logP values by the retention times using linear interpolation between two successive alkanones). The lambda max values were determined in the maxima of the chromatographic signals using the UV spectra from 200 nm to 400 nm.
For the molecule `COC(=O)c1cc(-c2cccnc2)n(C)n1` (single isomer, unassigned) [drawing 76 isomer 2], the chromatographic logP worked out at 0.77.

Still in this data set, the particulars now being: reversed-phase HPLC column (C18), pH 3.4, HPLC on reversed-phase column (C18), acidic range (pH 3.4), 55° C.; read-out: logP (HCOOH).
Take `c1cncc(-c2ncc(-c3cccc(C4OCCCO4)n3)s2)c1` [compound 203]: the chromatographic logP turned out to be 1.99.
`c1cncc(-c2ncc(-c3cccc(-n4cccn4)n3)s2)c1` [compound 187]: the chromatographic logP is 2.53.
As to `O=C(NCC(F)(F)F)c1cccc(-c2nnc(-c3cccnc3)s2)n1` [compound 241], the chromatographic logP stood at 2.07.
`CNc1nccc(-c2sc(-c3cccnc3)nc2C)n1` [compound 193]: the chromatographic logP is 1.41.
Take `Cc1cccc(-c2csc(-c3sc(-c4cccnc4)nc3C)n2)n1` [compound 173]: the chromatographic logP was 2.66.
As for `Cc1nc(-c2cccnc2)sc1-c1nc(C(=O)NC(C)C2CC2)cs1` (stereo not shown) [compound 233], the chromatographic logP worked out at 2.69.
For `COc1ccc(-c2cc(-c3cccnc3)nn2C)cn1` [compound 246], the chromatographic logP is 1.14.
Consider `Cc1nc(-c2cncnc2)sc1-c1ccnc(-c2ncccn2)n1` [compound 179], for which the chromatographic logP amounted to 1.06.
Consider `O=C(c1cccc(-c2nnc(-c3cccnc3)s2)n1)N1CCOCC1` [compound 250], for which the chromatographic logP was determined as 1.29.
`Cn1nc(-c2cccnc2)cc1-c1cncc(F)c1` [compound 228]: the chromatographic logP is 0.89.
In the case of `CCN(C)C(=O)c1cccc(-c2nnc(-c3cccnc3)s2)n1` [compound 248], the chromatographic logP is 1.54.
For `c1cncc(-c2ncc(-c3cccc(-c4ncon4)n3)s2)c1` [compound 182], the chromatographic logP came to 1.74.
Same read-out and setting: the result for `CON(C)C(=O)c1csc(-c2sc(-c3cccnc3)nc2C)n1` [compound 229] reads 1.78.
`Cc1nc(-c2cccnc2)sc1-c1nc(C(=O)NCC(F)(F)C(F)F)cs1` [compound 235]: the chromatographic logP was determined as 2.38.
On the same count and under the same terms, the result for `c1cncc(-c2ncc(-c3cccc(C4OCCO4)n3)s2)c1` [compound 205] reads 1.82; that for `Cc1nc(-c2cccnc2)sc1-c1nc(C(=O)N2CCCC2)cs1` [compound 237], 2.05; that for `Cc1nc(-c2cccnc2)sc1-c1nc(C(=O)N2CCCO2)cs1` [compound 242], 1.61.
Still for that read-out and setting: the result for `Cc1nc(-c2cccnc2)sc1-c1ccnc(N(C)C)n1` [compound 194] reads 2.15; that for `Cc1nc(-c2cccnc2)sc1-c1nc(C(=O)N(C)C)cs1` [compound 243], 1.67.
Same read-out and setting: the result for `COc1cc(OC)nc(-c2nc(-c3sc(-c4cccnc4)nc3C)cs2)n1` [compound 176] reads 3.21.
As to `CC(F)(F)c1ccc(-c2cnc(-c3cccnc3)s2)nc1` [compound 223], the chromatographic logP stood at 2.46.
Consider `Clc1cccc(-c2cnc(-c3cccnc3)s2)n1` [compound 178], for which the chromatographic logP was 2.43.
`CN(C)c1cccc(-c2cnc(-c3cccnc3)s2)n1` [compound 200]: the chromatographic logP was found to be 2.83.
Consider `c1cncc(-c2ncc(-c3cccc(-n4ccnc4)n3)s2)c1` [compound 199], for which the chromatographic logP was 0.93.
As to `Cc1cnn(-c2cccc(-c3cnc(-c4cccnc4)s3)n2)c1` [compound 188], the chromatographic logP was 3.08.
For the molecule `Cc1cc(-c2sc(-c3cncc(F)c3)nc2C)nc(-c2ncccn2)n1` [compound 185], the chromatographic logP was 1.68.
In the case of `COCCNC(=S)n1ccc(-c2sc(-c3cccnc3)nc2C)n1` [compound 196], the chromatographic logP stood at 3.01.
As to `Cn1nc(-c2cccnc2)cc1-c1cccnc1Cl` [compound 226], the chromatographic logP was 0.98.
Turning to `Cn1nc(-c2cccnc2)cc1-c1cccnc1` [compound 218], the chromatographic logP was 0.89.
Take `O=C1CCCN1c1cccc(-c2cnc(-c3cccnc3)s2)n1` [compound 206]: the chromatographic logP turned out to be 2.11.
Same read-out and setting: the result for `CS(=O)(=O)c1cccc(-c2cnc(-c3cccnc3)s2)n1` [compound 184] reads 1.44.
`CC(F)(F)c1cccc(-c2cnc(-c3cccnc3)s2)n1` [compound 224]: the chromatographic logP is 2.77.
`Cc1nc(-c2cccnc2)sc1-c1nc(C(=O)N(C)CC(F)(F)F)cs1` [compound 238]: the chromatographic logP was determined as 2.53.
For the molecule `CN1CCOC(c2cccc(-c3cnc(-c4cccnc4)s3)n2)=N1` [compound 181], the chromatographic logP is 1.82.
As to `COC(OC)c1cccc(-c2cnc(-c3cccnc3)s2)n1` [compound 225], the chromatographic logP amounted to 2.08.
For the molecule `c1cncc(-c2ncc(-c3cccc(-n4cccc4)n3)s2)c1` [compound 202], the chromatographic logP is 3.13.
As for `Cc1nc(-c2cccnc2)sc1-c1ccn(-c2nc(Cl)ns2)n1` [compound 195], the chromatographic logP was 3.76.
For the molecule `Cc1nccn1-c1cccc(-c2cnc(-c3cccnc3)s2)n1` [compound 201], the chromatographic logP was 0.89.
The same measure, in the same setting: the result for `CCOc1ccc(-c2cc(-c3cccnc3)nn2C)cn1` [compound 245] reads 1.46; that for `CNc1nc(-c2sc(-c3cccnc3)nc2C)cs1` [compound 174], 1.76; that for `CON(C)C(=O)c1cccc(-c2nnc(-c3cccnc3)s2)n1` [compound 249], 1.29.
Consider `Cn1nc(-c2cccnc2)cc1-c1cccc(Br)n1` [compound 190], for which the chromatographic logP was 1.67.
Regarding `Cn1nc(-c2cccnc2)cc1-c1cccc(-c2ncccn2)n1` [compound 192], the chromatographic logP came out at 1.12.
Same read-out and setting: for `Cc1nc(-c2cccnc2)sc1-c1nc(C(=O)N2CCOCC2)cs1` [compound 247] the value was 1.66.
Still for that read-out and setting: for `Nc1cccc(-c2cnc(-c3cccnc3)s2)n1` [compound 219] the value was 0.92; for `Cn1nc(-c2cccnc2)cc1-c1cncc(C#N)c1` [compound 227], 0.89.
Still for that read-out and setting: the result for `c1cncc(-c2ncc(-c3cnc(-c4cccnc4)s3)s2)c1` [compound 217] reads 1.43; that for `Cc1nc(-c2cccnc2)sc1-c1nc(C(=O)NCC(F)(F)F)cs1` [compound 175], 2.23; that for `Cc1nc(-c2cccnc2)sc1-c1csc(-c2cccnc2)n1` [compound 177], 2.19.
As for `Cc1nc(-c2cccnc2)sc1-c1nc(-c2ccccn2)cs1` [compound 172], the chromatographic logP turned out to be 2.53.
`c1cncc(-c2ncc(-c3cccc(-c4nc[nH]n4)n3)s2)c1` [compound 183]: the chromatographic logP is 1.24.
Same read-out and setting: for `CN(C)C(=O)c1cccc(-c2nnc(-c3cccnc3)s2)n1` [compound 221] the value was 1.34.

The data set is the same for the next values; noted with them: reversed-phase HPLC column (C18), pH 3.4, values printed in the text of the preparation examples; formic acid method; read-out: logP (HCOOH).
As for `c1cncc(-c2nncs2)c1` [3-[1,3,4]Thiadiazol-2-ylpyridine], the chromatographic logP was 0.15.
On the same count and under the same terms, for `CN(C)/C=C/C(=O)c1nnc(-c2cccnc2)s1` [(3-Dimethylamino-1-(5-pyridin-3-yl-[1,3,4]thiadiazol-2-yl)propenone] the value was 1.05.
In the case of `Cc1nc(-c2cccnc2)sc1C(=O)/C=C/N(C)C` [3-Dimethylamino-1-(4-methyl-2-pyridin-3-ylthiazol-5-yl)propenone], the chromatographic logP is 1.35.
For the molecule `Cc1nc(-c2cccnc2)sc1-c1cc[nH]n1` [3-[4-Methyl-5-(1H-pyrazol-3-yl)thiazol-2-yl]pyridine], the chromatographic logP stood at 1.31.
Still for that read-out and setting: the result for `Cc1nc(-c2cccnc2)sc1-c1cccc(C(N)=S)n1` [6-(4-Methyl-2-pyridin-3-ylthiazol-5-yl)pyridine-2-carbothioamide] reads 2.13; that for `O=C(NO)c1cccc(Br)n1` [6-Bromopyridine-2-carboxylic acid hydroxyamide], 0.69; that for `CC(=O)c1sc(-c2cccnc2)nc1C` [3-(5-Acetyl-4-methylthiazol-2-yl)pyridinium chloride], 1.48.
Still for that read-out and setting: for `CC(=O)c1cc(-c2cccnc2)nn1C` the value was 0.61; for `Cc1nc(-c2cccnc2)sc1Br` [3-(5-Bromo-4-methylthiazol-2-yl)pyridine], 2.3; for `Cn1nc(-c2cccnc2)cc1-c1cc[nH]n1` [drawing 82], 0.42.
For `CCOC(=O)C(=O)NNC(=O)c1cccnc1` [Ethyl oxo-[N′-(pyridin-3-carbonyl)hydrazino]acetate], the chromatographic logP was -0.13.
With `Cc1nc(-c2cccnc2)sc1C(=O)NN(CCO)c1ncccn1` [4-Methyl-2-pyridin-3-ylthiazole-5-carboxylic acid N-(hydroxyethyl)-N-pyrimidin-2-ylhydrazide], the chromatographic logP was determined as 1.08.
Take `Brc1cccc(C2=NOCCO2)n1` [3-(6-Bromopyridin-2-yl)-5,6-dihydro-[1,4,2]dioxazine]: the chromatographic logP came out at 1.37.
`c1cncc(-c2nccs2)c1` [3-Thiazol-2-ylpyridine]: the chromatographic logP was 0.62.
The same measure, in the same setting: for `Cc1nc(-c2cccnc2)sc1-c1cccc(Cl)n1` [2-Chloro-6-(4-methyl-2-pyridin-3-ylthiazol-5-yl)pyridine] the value was 2.66.
`Cc1nc(-c2cccnc2)sc1-c1cccc(C#N)n1` [6-(4-Methyl-2-pyridin-3-ylthiazol-5-yl)pyridine-2-carbonitrile]: the chromatographic logP came to 2.11.

Staying with this data set, now noted: values given in the preparation examples; formic acid method.
Regarding `CC(=O)c1sc(-c2cccnc2)nc1C` [1-(4-Methyl-2-pyridin-3-ylthiazol-5-yl)ethanone], the “logP (HCOOH)” value was found to be 1.5.
